In ChEMBL document CHEMBL1131597, “Discovery and development of the novel potent orally active thrombin inhibitor N-(9-hydroxy-9-fluorenecarboxy)prolyl trans-4-aminocyclohexylmethyl amide (L-372,460): coapplication of structure-based design and rapid multiple analogue synthesis on solid support” (J Med Chem, 1998) one finds IC50 and Ki data, which are given here for 17 molecules.

Test [1] deals with T1, Prothrombin (Homo sapiens, UniProt P00734). The experiment in a line: Inhibition of thrombin-catalyzed hydrolysis of a standard substrate.
In test [2] the target is T1, Prothrombin. The experiment in a line: Binding affinity towards thrombin was determined.
Another test concerns the target Serine protease 1 (Homo sapiens, UniProt P07477). The experiment in a line: Binding affinity towards trypsin was determined.

Sequence of Serine protease 1 (P07477 whole entry): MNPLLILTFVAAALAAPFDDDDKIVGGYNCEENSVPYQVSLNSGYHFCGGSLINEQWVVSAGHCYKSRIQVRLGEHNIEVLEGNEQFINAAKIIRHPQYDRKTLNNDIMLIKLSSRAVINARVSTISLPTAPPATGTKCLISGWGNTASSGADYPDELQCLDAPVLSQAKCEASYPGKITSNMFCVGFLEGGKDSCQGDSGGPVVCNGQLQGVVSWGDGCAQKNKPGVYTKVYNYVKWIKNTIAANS

`CN[C@H](Cc1ccccc1)C(=O)N1CCC[C@H]1C(=O)NC[C@H]1CC[C@H](N)CC1`: inhibition against Prothrombin [1] was half-maximal at 6 nM (IC50). This molecule also showed an inhibitory constant (Ki) on Prothrombin [2] of 4.9 nM.

In the case of `NC1CCC(CNC(=O)[C@@H]2CCCN2C(=O)CC2c3ccccc3-c3ccccc32)CC1` (some centres not stated), on Prothrombin [1], the concentration for half-maximal inhibition (IC50) came out at 106 nM.

For `NC1CCC(CNC(=O)[C@@H]2CCCN2C(=O)C23CC4CC(CC(C4)C2)C3)CC1` (some centres not stated), the IC50 against Prothrombin [1] was 120 nM.

The molecule `COc1cc(C(O)C(=O)N2CCC[C@H]2C(=O)NCC2CCC(N)CC2)ccc1O` (some centres not stated) returned an IC50 against Prothrombin [1] of 11 nM. For the same molecule, at Prothrombin [2], affinity was put at a Ki of 2.5 nM.

Molecule `COc1cc(CC(=O)N2CCC[C@H]2C(=O)NCC2CCC(N)CC2)cc(OC)c1OC` (some centres not stated) came in with an IC50 at Prothrombin [1] of 50 nM.

At Prothrombin [1], `CCCCC(CC(=O)N1CCC[C@H]1C(=O)NCC1CCC(N)CC1)c1ccccc1` (some centres not stated) registered an IC50 of 5 nM. Against the preceding molecule, the IC50 is about 10-fold lower.

With `N#C/C(=C\c1ccccc1)C(=O)N1CCC[C@H]1C(=O)NCC1CCC(N)CC1` (some centres not stated), the IC50 against Prothrombin [1] came out at 140 nM.

`NC1CCC(CNC(=O)[C@@H]2CCCN2C(=O)C2CC(=O)N3CCc4ccccc4C23)CC1` (some centres not stated) returned a 50% inhibitory concentration (IC50) against Prothrombin [1] of 90 nM.

In the case of `NC1CCC(CNC(=O)[C@@H]2CCCN2C(=O)C2c3ccccc3-c3ccccc32)CC1` (some centres not stated), half-maximal inhibition on Prothrombin [1] (IC50) required 380 nM. This IC50 is about 4.2-fold higher than that of the molecule before.

Take `CN1C(=O)C[C@@H](c2cccnc2)[C@@H]1C(=O)N1CCC[C@H]1C(=O)NCC1CCC(N)CC1` (some centres not stated): half-maximal inhibition on Prothrombin [1] (IC50) required 60 nM.

Molecule `NC1CCC(CNC(=O)[C@@H]2CCCN2C(=O)C2CCc3ccccc3C2)CC1` (some centres not stated) displayed an IC50 on Prothrombin [1] of 910 nM. Compared with the last molecule, the IC50 is about 15-fold higher.

For the molecule `NC1CCC(CNC(=O)[C@@H]2CCCN2C(=O)C(Cc2ccccc2)c2ccccc2)CC1` (some centres not stated), the concentration for half-maximal inhibition (IC50) against Prothrombin [1] worked out at 57 nM. This IC50 is about 16-fold lower than that of the molecule before.

For the molecule `N[C@H]1CC[C@H](CNC(=O)[C@@H]2CCCN2C(=O)C2(O)c3ccccc3-c3ccccc32)CC1`, on Prothrombin [1], the IC50 was 4 nM. Further, at Serine protease 1, the affinity, expressed as Ki, was 860 nM.

In turn, `NC1CCC(CNC(=O)[C@@H]2CCCN2C(=O)C2COc3ccccc3O2)CC1` (some centres not stated) had an IC50 at Prothrombin [1] of 100 nM. The same molecule came in with an inhibition constant (Ki) at Prothrombin [2] of 75 nM.

In the case of `NC1CCC(CNC(=O)[C@@H]2CCCN2C(=O)C2CC2(c2ccccc2)c2ccccc2)CC1` (some centres not stated), the IC50 against Prothrombin [1] was determined as 190 nM. This lies in the sub-micromolar range.

On Prothrombin [1], `NC1CCC(CNC(=O)[C@@H]2CCCN2C(=O)C(Cc2ccc(O)cc2)c2ccccc2)CC1` (some centres not stated) had a half-maximal inhibitory concentration (IC50) of 10 nM. Also, the Ki on Prothrombin [2] worked out at 2.5 nM.

Turning to `COc1ccccc1CCC(=O)N1CCC[C@H]1C(=O)NCC1CCC(N)CC1` (some centres not stated), at Prothrombin [1], inhibition was half-maximal at 230 nM (IC50).

By IC50 is commonly meant the concentration at which inhibition is half-maximal. Read a high IC50 as lower potency. What is called Ki is a measure of affinity in units of concentration, obtained from inhibition or displacement. Low readings indicate a stronger hold on the target, high ones a looser hold on the target.
